“Also recorded” adds a separate entry of the source.
Key:
A549 cells [1] = experiment: Cell adhesion assay; assay type: cell-based, human; settings: A549, fibronectin-coated plate, concentration-dependent
Protocol: (§1) The cell adhesion assay was performed as indicated previously.[38] Briefly, the 96‐well plate was coated with human fibronectin (Millipore), and then cells were seeded into the 96‐well plate and cultured for another 1 h at 37°C in a 5% CO2 incubator. Finally, rinsing the plate before fixed with 10% formalin and stained with crystal violet. As followed, wash the plate with ddH2O and add 100 μl acetic acid (33%) into the plate to dissolve the crystal violet. The absorbance at 560 nm was detected by Synergy H1 Multi‐Mode Reader (BioTek). Relative number of cells attaching to extracellular matrix was evaluated using the following equation: mean OD of treated cells/mean OD of control cells.

A549R cells [2] = experiment: Cell adhesion assay; assay type: cell-based, human; settings: fibronectin-coated plate, concentration-dependent
Protocol: as §1

A549 cells [3] = experiment: Transwell migration and invasion assay; assay type: cell-based, human; settings: A549, pretreated 5 days, 24 h
Protocol: (§2) Transwell assay was carried out according to the manufacturer's instructions provided by Transwell Kit (Corning Costar). Briefly, cells were pretreated with indicated concentrations of C1632 for 5 days, then harvested and re‐seeded into insert (transwell permeable support) containing 100 μl serum‐free DMEM medium. The insert was placed into 24‐well plate containing 600 μl of DMEM medium extra added with 10% FBS. 24 h later, cells on the upper surface of the insert were removed with cotton‐tipped swabs. And cells on backside surface of the insert were fixed with 10% formalin, then stained with crystal violet. The insert was washed three times with ddH2O before it is subjected to Nikon Ti microscope observation. Additionally, these inserts were dissolved in 500 μl acetic acid (33%) separately, and the absorbance at 560 nm was detected by the spectrophotometer (DTX880, Beckman Coulter).

A549R cells [4] = experiment: Transwell migration and invasion assay; assay type: cell-based, human; settings: pretreated 5 days, 24 h
Protocol: as §2

CYP2B1 = biological target: T1, CYP2B1 (Rattus norvegicus, UniProt P00176); experiment: Microsomal incubation (cocktail) assay, rat liver microsomes; assay type: in vitro ADME; settings: 100 μM C1632, probe 10 μM bupropion, 30 min, 37°C
T1 construct: 3.4 mg/ml pooled rat liver microsomes; from tissue; host or cells: pooled rat liver microsomes
T1 sequence (P00176 1-491): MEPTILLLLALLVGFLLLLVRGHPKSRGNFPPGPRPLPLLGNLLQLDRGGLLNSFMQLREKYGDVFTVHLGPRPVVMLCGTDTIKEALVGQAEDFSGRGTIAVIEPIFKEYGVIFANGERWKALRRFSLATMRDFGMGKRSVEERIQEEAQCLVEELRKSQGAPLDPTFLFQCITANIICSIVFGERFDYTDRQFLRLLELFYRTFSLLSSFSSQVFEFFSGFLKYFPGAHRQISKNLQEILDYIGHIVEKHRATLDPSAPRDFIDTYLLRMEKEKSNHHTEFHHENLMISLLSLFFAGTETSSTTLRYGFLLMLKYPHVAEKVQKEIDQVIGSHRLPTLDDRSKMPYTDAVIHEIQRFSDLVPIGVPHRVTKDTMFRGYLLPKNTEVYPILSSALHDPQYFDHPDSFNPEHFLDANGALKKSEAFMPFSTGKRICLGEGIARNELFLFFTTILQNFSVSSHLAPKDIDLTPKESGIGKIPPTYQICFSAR
Protocol: (§3) The microsomal incubation assay[41] was performed at 37°C in a 200 μl incubation system, which consisted of 3.4 mg/ml pooled rat liver microsomes, 100 μM C1632, and probe substrates (5 μM CYP3A2‐midazolam; 10 μM CYP2D1‐dextromethorphan; 250 μM CYP2C11‐tolbutamide; 10 μM CYP2B1‐bupropion; and 0.1 M Tris–HCl [pH 7.4]). After 5 min of incubation, 1 mM NADPH was added, and the assay was terminated after 30 min by cooling at −80°C. Next, 0.2 ml acetonitrile and 20 μl IS (100 ng/ml) were added to the reactant. Finally, the solution was thoroughly vortexed and centrifuged at 12,000 rpm for 10 min. The supernatant was analysed by UHPLC‐MS/MS.[42]

CYP2D1 = biological target: T2, CYP2D1 (Rattus norvegicus, UniProt P10633); experiment: as above; assay type: in vitro ADME; settings: 100 μM C1632, probe 10 μM dextromethorphan, 30 min, 37°C
T2 construct: 3.4 mg/ml pooled rat liver microsomes; from tissue; host or cells: pooled rat liver microsomes
T2 sequence (P10633 1-504): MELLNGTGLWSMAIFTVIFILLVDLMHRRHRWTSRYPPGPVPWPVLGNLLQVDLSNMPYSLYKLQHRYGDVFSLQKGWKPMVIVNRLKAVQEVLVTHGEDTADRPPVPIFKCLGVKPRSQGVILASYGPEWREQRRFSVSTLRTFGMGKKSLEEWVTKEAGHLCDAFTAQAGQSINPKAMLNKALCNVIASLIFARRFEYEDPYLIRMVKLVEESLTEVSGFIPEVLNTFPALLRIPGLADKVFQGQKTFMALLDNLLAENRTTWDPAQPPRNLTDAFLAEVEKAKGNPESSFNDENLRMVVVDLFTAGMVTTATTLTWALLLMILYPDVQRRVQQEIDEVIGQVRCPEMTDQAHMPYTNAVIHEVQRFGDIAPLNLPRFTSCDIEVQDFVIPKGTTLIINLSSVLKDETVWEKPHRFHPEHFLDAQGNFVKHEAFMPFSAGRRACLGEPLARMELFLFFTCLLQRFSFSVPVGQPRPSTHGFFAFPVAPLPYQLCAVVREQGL
Protocol: as §3

A549 cells [5] = experiment: MTT cell viability assay; assay type: cell-based, human; settings: A549, high dose 60 mg/L
Protocol: (§4) The cell viability of MRC5, A549, and A549R were assessed by the 3‐(4,5‐dimethylthiazol‐2‐yl)‐2,5‐diphenyltetrazolium bromide (MTT) assay.[39] Cells were treated with indicated concentration of C1632 or 0.01% DMSO (Control) for 48 h before 20 μl/well MTT (0.5 mg/ml) was added for another 4 h. The reaction product formazan was dissolved in 100 μl DMSO and the absorbance at 560 nm was determined by the spectrophotometer (DTX880, Beckman Coulter).

A549R cells [6] = experiment: MTT cell viability assay; assay type: cell-based, human; settings: high dose 60 mg/L
Protocol: as §4

MRC5 cells = experiment: MTT cell viability assay; assay type: cell-based, human; settings: MRC5, high dose 60 mg/L
Protocol: as §4

A549 cells [7] = experiment: SA-β gal staining assay; assay type: cell-based, human; settings: A549, 15, 30 and 60 mg/L, 5 days
Protocol: (§5) The assay was set up following the β‐galactosidase (SA‐β gal) staining Kit, which was obtained from Sigma. In brief, cells were washed once with PBS and fixed with stationary liquid provided in the kit at room temperature for 15 min. Next, the cells were incubated overnight at 37°C in dark with the 1 ml working solution containing 0.05 mg/ml 5‐bromo‐4‐chloro‐3‐indolyl‐b‐d‐galactopyranoside (X‐gal) and observed under a normal light microscope (Nikon).

A549R cells [8] = experiment: SA-β gal staining assay; assay type: cell-based, human; settings: A549R, 15, 30 and 60 mg/L, 5 days
Protocol: as §5

With `CC(=O)N(C)c1cccc(-c2ccc3nnc(C)n3n2)c1` [C1632] the “cell adhesion to the matrix” value (A549 cells [1]) was “significant decrease”, the “cell adhesion to the matrix” value (A549R cells [2]) was “significant decrease” and the “Transwell migration compared with untreated cells” value (A549 cells [3]) was “decreased migration”. For the same molecule, the “Transwell migration compared with untreated cells” value (A549R cells [4]) was “decreased migration”, the “effect on CYP2B1 activity” value (CYP2B1) was “significantly inhibit” and the “effect on CYP2D1 activity” value (CYP2D1) was “significantly inhibit”. The cell viability (A549 cells [5]) was “decreased the viability”, the cell viability (A549R cells [6]) was “decreased the viability” and the “cytotoxicity on normal foetal lung fibroblast cells” value (MRC5 cells) was “almost had no cytotoxicity”. The “senescence (β-gal positive cells)” value (A549 cells [7]) was “did not induce the senescence; also recorded: did not significantly increase” and the “senescence (β-gal positive cells)” value (A549R cells [8]) was “induce the senescence”.

Reference: publication PMC8743659, “C1632 suppresses the migration and proliferation of non‐small‐cell lung cancer cells involving LIN28 and FGFR1 pathway” (Journal of Cellular and Molecular Medicine, 2021)
